Our source for the IC50 values is US12606544B2, “JAK1 selective kinase inhibitor” (DIZAL (JIANGSU) PHARMACEUTICAL CO., LTD., priority 2019, dated 2026).

One assay addresses T1, JAK2 (Homo sapiens, UniProt O60674).
T1 construct: purchased Carna Biosciences
Briefly: Lance Ultra Kinase Assay, recombinant JAK2. The format is biochemical. Conditions: 5 mM ATP. Here is the method: (§1) Recombinant JAK1, JAK2, JAK3 and TYK2 purchased from Carna Biosciences. The inhibition potency of compounds against JAK1, JAK2, JAK3 and TYK2 was assessed using Lance Ultra Kinase Assay.
(§2) In brief, recombinant kinases were pre-incubated in the presence or absence of compound at room temperature for 15 minutes. The reaction was initiated by the addition of 5 mM ATP and substrate peptide which could be phosphorylated by kinases in the reaction. After 60 minutes incubation, the reaction was stopped by the addition of the detection reagent mix containing EDTA. The fluorescence was measured at 615 nm and 665 nm, respectively with excitation wavelength at 320 nm. The calculated signal ratio of 665 nm/615 nm is proportional to the kinase activity.

The next assay deals with T2, TYK2 (Homo sapiens, UniProt P29597).
T2 construct: purchased Carna Biosciences
T2 sequence (P29597 whole entry): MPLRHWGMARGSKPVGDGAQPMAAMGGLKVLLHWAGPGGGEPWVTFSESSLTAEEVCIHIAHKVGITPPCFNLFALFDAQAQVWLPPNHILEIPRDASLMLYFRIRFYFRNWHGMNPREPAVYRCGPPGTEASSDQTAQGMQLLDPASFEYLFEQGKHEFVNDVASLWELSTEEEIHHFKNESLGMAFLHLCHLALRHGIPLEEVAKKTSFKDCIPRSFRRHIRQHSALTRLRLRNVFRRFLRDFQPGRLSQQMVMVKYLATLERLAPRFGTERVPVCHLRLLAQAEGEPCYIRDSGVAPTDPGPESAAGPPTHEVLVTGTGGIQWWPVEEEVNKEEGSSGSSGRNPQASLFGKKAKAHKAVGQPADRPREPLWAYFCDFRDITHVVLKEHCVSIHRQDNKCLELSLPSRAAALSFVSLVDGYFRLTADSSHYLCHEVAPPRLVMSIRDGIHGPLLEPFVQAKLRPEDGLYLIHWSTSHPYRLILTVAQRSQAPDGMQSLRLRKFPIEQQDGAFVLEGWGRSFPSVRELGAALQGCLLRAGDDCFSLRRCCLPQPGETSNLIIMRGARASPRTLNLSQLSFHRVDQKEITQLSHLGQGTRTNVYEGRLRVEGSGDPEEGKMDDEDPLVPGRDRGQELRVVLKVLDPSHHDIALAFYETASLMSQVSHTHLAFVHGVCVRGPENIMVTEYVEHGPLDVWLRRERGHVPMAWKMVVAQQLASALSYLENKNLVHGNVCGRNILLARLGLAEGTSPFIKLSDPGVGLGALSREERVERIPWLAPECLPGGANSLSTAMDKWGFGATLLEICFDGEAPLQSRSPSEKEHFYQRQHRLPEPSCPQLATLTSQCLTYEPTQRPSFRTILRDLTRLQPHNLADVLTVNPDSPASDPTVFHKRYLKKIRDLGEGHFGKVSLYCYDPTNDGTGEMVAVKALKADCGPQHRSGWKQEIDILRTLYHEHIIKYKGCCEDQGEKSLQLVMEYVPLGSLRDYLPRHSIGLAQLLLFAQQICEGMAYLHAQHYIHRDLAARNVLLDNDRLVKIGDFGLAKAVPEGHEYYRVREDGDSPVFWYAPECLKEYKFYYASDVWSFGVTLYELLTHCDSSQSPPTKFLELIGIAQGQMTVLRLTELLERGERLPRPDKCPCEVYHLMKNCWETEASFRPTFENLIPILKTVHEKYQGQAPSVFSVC
The assay can be described thus: Lance Ultra Kinase Assay, recombinant TYK2. The format is biochemical. Conditions: 5 mM ATP. On the procedure: as §1, §2

In the next assay the target is T3, JAK3 (Homo sapiens, UniProt P52333).
T3 construct: purchased Carna Biosciences
T3 sequence (P52333 1-1124): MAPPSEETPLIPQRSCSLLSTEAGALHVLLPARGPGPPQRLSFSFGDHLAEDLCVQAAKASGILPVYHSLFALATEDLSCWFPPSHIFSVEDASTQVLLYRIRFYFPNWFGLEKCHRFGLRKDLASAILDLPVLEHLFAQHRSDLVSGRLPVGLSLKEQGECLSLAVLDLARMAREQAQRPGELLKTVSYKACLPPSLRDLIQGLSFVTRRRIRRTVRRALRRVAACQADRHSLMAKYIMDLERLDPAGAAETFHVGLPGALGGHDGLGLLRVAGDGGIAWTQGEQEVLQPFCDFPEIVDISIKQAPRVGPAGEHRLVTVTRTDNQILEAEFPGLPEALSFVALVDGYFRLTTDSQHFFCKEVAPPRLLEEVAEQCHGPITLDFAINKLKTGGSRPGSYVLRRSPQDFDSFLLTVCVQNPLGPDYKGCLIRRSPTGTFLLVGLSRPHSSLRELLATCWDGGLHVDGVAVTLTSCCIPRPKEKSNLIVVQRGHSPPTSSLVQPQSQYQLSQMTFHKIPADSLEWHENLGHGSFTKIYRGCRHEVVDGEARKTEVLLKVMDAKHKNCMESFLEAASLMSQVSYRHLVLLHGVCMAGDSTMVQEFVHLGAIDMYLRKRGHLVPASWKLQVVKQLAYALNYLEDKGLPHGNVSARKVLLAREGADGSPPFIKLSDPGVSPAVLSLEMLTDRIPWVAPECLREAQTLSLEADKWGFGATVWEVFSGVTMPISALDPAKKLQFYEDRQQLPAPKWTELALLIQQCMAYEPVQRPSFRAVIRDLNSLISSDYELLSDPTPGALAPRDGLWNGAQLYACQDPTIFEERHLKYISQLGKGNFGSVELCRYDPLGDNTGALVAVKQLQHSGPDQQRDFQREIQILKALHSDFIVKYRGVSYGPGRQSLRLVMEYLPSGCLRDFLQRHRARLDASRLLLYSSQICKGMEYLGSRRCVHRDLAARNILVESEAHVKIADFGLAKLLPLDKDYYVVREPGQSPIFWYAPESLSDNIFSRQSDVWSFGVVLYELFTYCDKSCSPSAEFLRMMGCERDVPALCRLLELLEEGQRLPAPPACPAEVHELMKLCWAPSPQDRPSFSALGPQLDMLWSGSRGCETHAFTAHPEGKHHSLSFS
Briefly: Lance Ultra Kinase Assay, recombinant JAK3. It counts as biochemical. The following applies: 5 mM ATP. Here is the method:
as §1, §2

A further assay has as its system phosphorylation of STAT6. Briefly: Cellular p-STAT6 assay, IL-13 stimulated THP-1 cells, flow cytometry. It counts as cell-based. Conditions: Homo sapiens, THP-1, THP-1 cells, IL-13 10 ng/ml; read-out: pSTAT6 IC50. Here is the method: To detect phosphorylated STAT6 (pSTAT6), THP-1 cells were harvested by centrifugation at 250 g for 5 min and resuspended in assay medium (RPMI1640+10% FBS) to 2×10^5 cells/well. Test compounds were applied to assay plates in serial dilution from 1 μM to 0.3 nM in DMSO. THP-1 cells were incubated with serial diluted compounds for 60 min at room temperature, followed by stimulation of interleukin (IL-13, 10 ng/ml) for 30 min, fixed in Cytofix buffer (BD Biosciences), and permeabilized in 90% methanol on ice. PE anti-pSTAT6 (BD Biosciences) antibodies were stained for 60 min at room temperature before being analyzed by flow cytometry. In the assay the compounds were thus diluted and dose-response curves for inhibition of the signal determine the IC50 for the compounds.

A further assay deals with T4, JAK1 (Homo sapiens, UniProt P23458).
T4 construct: purchased Carna Biosciences
T4 sequence (P23458 whole entry): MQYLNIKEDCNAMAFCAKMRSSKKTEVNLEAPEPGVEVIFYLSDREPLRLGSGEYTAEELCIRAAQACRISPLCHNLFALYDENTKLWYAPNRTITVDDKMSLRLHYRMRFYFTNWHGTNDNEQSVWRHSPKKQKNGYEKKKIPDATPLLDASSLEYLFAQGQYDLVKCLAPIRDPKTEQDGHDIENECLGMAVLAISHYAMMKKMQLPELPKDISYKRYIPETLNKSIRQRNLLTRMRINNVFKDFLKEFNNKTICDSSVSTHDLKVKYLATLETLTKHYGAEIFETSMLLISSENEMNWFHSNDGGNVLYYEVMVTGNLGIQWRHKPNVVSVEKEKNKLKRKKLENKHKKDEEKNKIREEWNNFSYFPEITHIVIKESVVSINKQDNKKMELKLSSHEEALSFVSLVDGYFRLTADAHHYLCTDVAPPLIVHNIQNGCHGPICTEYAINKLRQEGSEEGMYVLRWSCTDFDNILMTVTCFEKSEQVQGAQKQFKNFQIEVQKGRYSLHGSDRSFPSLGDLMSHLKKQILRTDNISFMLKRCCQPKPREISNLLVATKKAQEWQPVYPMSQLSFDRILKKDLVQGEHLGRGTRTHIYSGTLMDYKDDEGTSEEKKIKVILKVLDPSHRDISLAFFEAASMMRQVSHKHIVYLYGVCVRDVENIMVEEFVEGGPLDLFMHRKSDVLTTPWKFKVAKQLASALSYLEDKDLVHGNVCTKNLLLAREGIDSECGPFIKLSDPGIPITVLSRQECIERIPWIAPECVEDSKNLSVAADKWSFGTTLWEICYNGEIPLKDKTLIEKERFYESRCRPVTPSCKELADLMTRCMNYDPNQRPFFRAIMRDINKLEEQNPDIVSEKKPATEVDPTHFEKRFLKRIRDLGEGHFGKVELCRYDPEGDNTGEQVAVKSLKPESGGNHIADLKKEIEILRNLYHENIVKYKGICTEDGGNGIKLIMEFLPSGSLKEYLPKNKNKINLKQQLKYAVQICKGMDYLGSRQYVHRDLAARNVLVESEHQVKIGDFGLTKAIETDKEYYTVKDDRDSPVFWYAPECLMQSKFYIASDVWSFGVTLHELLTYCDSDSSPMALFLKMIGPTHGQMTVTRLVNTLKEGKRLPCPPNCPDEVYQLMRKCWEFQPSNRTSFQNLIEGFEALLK
Briefly: Lance Ultra Kinase Assay, recombinant JAK1. The format is biochemical. Conditions: 5 mM ATP. Here is the method:
as §1, §2

T1 sequence (O60674 whole entry): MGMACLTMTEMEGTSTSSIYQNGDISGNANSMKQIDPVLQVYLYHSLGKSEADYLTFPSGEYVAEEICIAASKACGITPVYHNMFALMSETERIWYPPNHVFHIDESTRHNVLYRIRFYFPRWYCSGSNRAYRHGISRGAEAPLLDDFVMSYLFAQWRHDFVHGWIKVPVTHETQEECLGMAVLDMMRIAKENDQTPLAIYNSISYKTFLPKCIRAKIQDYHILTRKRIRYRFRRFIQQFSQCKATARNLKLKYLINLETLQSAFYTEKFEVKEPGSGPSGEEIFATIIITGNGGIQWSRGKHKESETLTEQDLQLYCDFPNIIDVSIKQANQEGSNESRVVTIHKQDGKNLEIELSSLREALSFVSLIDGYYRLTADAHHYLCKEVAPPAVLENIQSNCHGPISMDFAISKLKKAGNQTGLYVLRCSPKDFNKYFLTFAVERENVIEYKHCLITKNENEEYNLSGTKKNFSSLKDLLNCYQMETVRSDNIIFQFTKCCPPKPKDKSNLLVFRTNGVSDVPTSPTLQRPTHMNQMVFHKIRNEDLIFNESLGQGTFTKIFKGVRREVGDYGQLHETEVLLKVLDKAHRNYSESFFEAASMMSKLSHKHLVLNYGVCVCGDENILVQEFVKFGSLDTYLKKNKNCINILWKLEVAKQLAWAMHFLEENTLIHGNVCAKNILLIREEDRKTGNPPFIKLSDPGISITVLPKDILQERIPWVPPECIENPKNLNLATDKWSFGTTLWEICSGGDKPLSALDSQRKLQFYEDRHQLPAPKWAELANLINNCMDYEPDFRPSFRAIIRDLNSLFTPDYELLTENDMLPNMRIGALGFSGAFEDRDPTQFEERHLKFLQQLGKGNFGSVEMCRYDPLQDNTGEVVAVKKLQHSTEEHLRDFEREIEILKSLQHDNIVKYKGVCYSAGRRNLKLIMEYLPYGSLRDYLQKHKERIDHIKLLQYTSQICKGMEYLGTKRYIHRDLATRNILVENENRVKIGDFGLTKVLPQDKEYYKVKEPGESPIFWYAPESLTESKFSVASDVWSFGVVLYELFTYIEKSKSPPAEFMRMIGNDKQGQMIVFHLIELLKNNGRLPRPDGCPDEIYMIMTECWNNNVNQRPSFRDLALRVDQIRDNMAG

In general, IC50 refers to the midpoint of a concentration-inhibition curve. On to `COC[C@H](C(=O)Nc1cccc2c(-c3nc(Nc4ccc5scnc5c4)ncc3F)c[nH]c12)N1CCN(C)CC1` [Example 26, (R)-N-(3-(2-(benzo[d]thiazol-5-ylamino)-5-fluoropyrimidin-4-yl)-1H-indol-7-yl)-3-methoxy-2-(4-methylpiperazin-1-yl)propanamide], for which the IC50 was 100 nM on JAK2; 1260 nM on TYK2; over 10000 nM on JAK3; 9.1 nM with phosphorylation of STAT6; 0.07 nM at JAK1.

With `COC[C@H](C(=O)Nc1cccc2c(-c3nc(Nc4cncc(O)c4)ncc3F)c[nH]c12)N1CCN(C)CC1` [Example 28, (R)-N-(3-(5-fluoro-2-((5-hydroxypyridin-3-yl)amino)pyrimidin-4-yl)-1H-indol-7-yl)-3-methoxy-2-(4-methylpiperazin-1-yl)propanainide], the IC50 on JAK2 is 162 nM; at TYK2, 1180 nM; on JAK3 it was over 10000 nM; in the assay with phosphorylation of STAT6, 9.6 nM; on JAK1 it was 0.12 nM.

`CCOC(=O)Cc1ccc(Nc2ncc(F)c(-c3c[nH]c4c(NC(=O)[C@@H](COC)N5CCN(C)CC5)cccc34)n2)cn1` [Example 31, ethyl (R)-2-(5-((5-fluoro-4-(7-(3-methoxy-2-(4-methylpiperazin-1-yl)propanamido)-1H-indol-3-yl)pyrimidin-2-yl)amino)pyridin-2-yl)acetate]: the IC50 at JAK2 is 218 nM; on TYK2 it was 1310 nM; on JAK3, over 10000 nM; in the assay with phosphorylation of STAT6 it was 10.4 nM; on JAK1 it was 0.15 nM.

`COC[C@H](C(=O)Nc1cccc2c(-c3nc(Nc4ccc5[nH]ncc5c4)ncc3F)c[nH]c12)N1CCN(C)CC1` [Example 32, (R)-N-(3-(2-((1H-indazol-5-yl)amino)-5-fluoropyrimidin-4-yl)-1H-indol-7-yl)-3-methoxy-2-(4-methylpiperazin-1-yl)propanamide]: the half-inhibitory concentration (IC50) at JAK2 was 87 nM; at TYK2 it was 1490 nM; on JAK3, 9280 nM; in the assay with phosphorylation of STAT6, 10.6 nM; on JAK1 it was 0.16 nM.

Regarding `COC[C@H](C(=O)Nc1cccc2c(-c3nc(Nc4cnc(CO)c(OC)c4)ncc3F)c[nH]c12)N1CCN(C)CC1` [Example 34, (R)-N-(3-(5-fluoro-2-((6-(hydroxymethyl)-5-methoxypyridin-3-yl)amino)pyrimidin-4-yl)-1H-indol-7-yl)-3-methoxy-2-(4-methylpiperazin-1-yl)propanamide], the IC50 on JAK2 was 12 nM; on TYK2, 447 nM; on JAK3, over 10000 nM; with phosphorylation of STAT6, 11.3 nM; at JAK1, 0.18 nM.

As to `CNC(=O)Cc1ccc(Nc2ncc(F)c(-c3c[nH]c4c(NC(=O)[C@@H](COC)N5CCN(C)CC5)cccc34)n2)cn1` [Example 39, (R)-N-(3-(5-fluoro-2-((6-(2-(methylamino)-2-oxoethyl)pyridin-3-yl)amino)pyrimidin-4-yl)-1H-indol-7-yl)-3-methoxy-2-(4-methylpiperazin-1-yl)propanamide], the IC50 at JAK2 is 316 nM; at TYK2, 974 nM; on JAK3, over 10000 nM; in the assay with phosphorylation of STAT6 it was 11.9 nM; at JAK1 it was 0.23 nM.

On to `COC[C@H](C(=O)Nc1cccc2c(-c3nc(Nc4ccc5[nH]ccc5c4)ncc3F)c[nH]c12)N1CCN(C)CC1` [Example 41, (R)-N-(3-(2-((1H-indol-5-yl)amino)-5-fluoropyrimidin-4-yl)-1H-indol-7-yl)-3-methoxy-2-(4-methylpiperazin-1-yl)propanamide], for which the IC50 was 110 nM on JAK2; 1430 nM at TYK2; over 10000 nM at JAK3; 12.6 nM in the assay on phosphorylation of STAT6; 0.22 nM on JAK1.

As for `COC[C@H](C(=O)Nc1cccc2c(-c3nc(Nc4ccc5c(c4)CCOC5=O)ncc3F)c[nH]c12)N1CCN(C)CC1` [Example 42, (R)-N-(3-(5-fluoro-2-((1-oxoisochroman-6-yl)amino)pyrimidin-4-yl)-1H-indol-7-yl)-3-methoxy-2-(4-methylpiperazin-1-yl)propanamide], the IC50 amounted to 16 nM at JAK2; 560 nM on TYK2; 5260 nM at JAK3; 12.8 nM with phosphorylation of STAT6; 0.07 nM at JAK1.

Take `COC[C@H](C(=O)Nc1cccc2c(-c3nc(Nc4ccc5c(C(=O)OC)n[nH]c5c4)ncc3F)c[nH]c12)N1CCN(C)CC1` [Example 44, methyl (R)-6-((5-fluoro-4-(7-(3-methoxy-2-(4-methylpiperazin-1-yl)propanamido)-1H-indol-3-yl)pyrimidin-2-yl)amino)-1H-indazole-3-carboxylate]: the IC50 at JAK2 is 147 nM; on TYK2, over 10000 nM; on JAK3, over 10000 nM; in the assay on phosphorylation of STAT6, 13.2 nM; at JAK1, 0.27 nM.

Consider `COC[C@H](C(=O)Nc1cccc2c(-c3nc(Nc4ccc5c(CO)ncn5c4)ncc3F)c[nH]c12)N1CCN(C)CC1` [Example 46, (R)-N-(3-(5-fluoro-2-((1-(hydroxymethyl)imidazo[1,5-a]pyridin-6-yl)amino)pyrimidin-4-yl)-1H-indol-7-yl)-3-methoxy-2-(4-methylpiperazin-1-yl)propanainide], for which the IC50 on JAK2 is 322 nM; at TYK2, over 10000 nM; at JAK3, over 10000 nM; in the assay on phosphorylation of STAT6, 13.5 nM; at JAK1, 1.52 nM.

Take `COC[C@H](C(=O)Nc1cccc2c(-c3nc(Nc4ccc5ncsc5c4)ncc3F)c[nH]c12)N1CCN(C)CC1` [Example 47, (R)-N-(3-(2-(benzo[d]thiazol-6-ylamino)-5-fluoropyrimidin-4-yl)-1H-indol-7-yl)-3-methoxy-2-(4-methylpiperazin-1-yl)propanamide]: the IC50 on JAK2 was 81 nM; at TYK2, 556 nM; at JAK3, over 10000 nM; in the assay on phosphorylation of STAT6 it was 14 nM; on JAK1 it was 0.13 nM.

In the case of `COC[C@H](C(=O)Nc1cccc2c(-c3nc(Nc4ccc5ncoc5c4)ncc3F)c[nH]c12)N1CCN(C)CC1` [Example 50, (R)-N-(3-(2-(benzo[d]oxazol-6-ylamino)-5-fluoropyrimidin-4-yl)-1H-indol-7-yl)-3-methoxy-2-(4-methylpiperazin-1-yl)propanamide], the half-maximal inhibitory concentration (IC50) was 119 nM on JAK2; 772 nM on TYK2; over 10000 nM at JAK3; 14.4 nM with phosphorylation of STAT6; 0.11 nM on JAK1.

On to `COC[C@H](C(=O)Nc1cccc2c(-c3nc(Nc4ccc5ocnc5c4)ncc3F)c[nH]c12)N1CCN(C)CC1` [Example 51, (R)-N-(3-(2-(benzo[d]oxazol-5-ylamino)-5-fluoropyrimidin-4-yl)-1H-indol-7-yl)-3-methoxy-2-(4-methylpiperazin-1-yl)propanamide], for which the half-inhibitory concentration (IC50) on JAK2 is 186 nM; at TYK2, 1400 nM; at JAK3, over 10000 nM; in the assay with phosphorylation of STAT6 it was 14.9 nM; on JAK1, 0.23 nM.
